Results on 98 molecules are retold here after PubChem BioAssay AID1033 (Sanford-Burnham Center for Chemical Genomics, 2008).

Calls of active or inactive are those of the source. The rule behind the calls is not given here.

The target of the test is Chaperone protein DnaK (Escherichia coli (strain K12)) (UniProt P0A6Y8). Description: E. coli DnaK SBD ligand binding – biophysical, NMR, chaperone (AID 1033). As to conditions: Purified DnaK SBD.
Chain of Chaperone protein DnaK (Escherichia coli (strain K12)) (P0A6Y8 whole entry, looked up): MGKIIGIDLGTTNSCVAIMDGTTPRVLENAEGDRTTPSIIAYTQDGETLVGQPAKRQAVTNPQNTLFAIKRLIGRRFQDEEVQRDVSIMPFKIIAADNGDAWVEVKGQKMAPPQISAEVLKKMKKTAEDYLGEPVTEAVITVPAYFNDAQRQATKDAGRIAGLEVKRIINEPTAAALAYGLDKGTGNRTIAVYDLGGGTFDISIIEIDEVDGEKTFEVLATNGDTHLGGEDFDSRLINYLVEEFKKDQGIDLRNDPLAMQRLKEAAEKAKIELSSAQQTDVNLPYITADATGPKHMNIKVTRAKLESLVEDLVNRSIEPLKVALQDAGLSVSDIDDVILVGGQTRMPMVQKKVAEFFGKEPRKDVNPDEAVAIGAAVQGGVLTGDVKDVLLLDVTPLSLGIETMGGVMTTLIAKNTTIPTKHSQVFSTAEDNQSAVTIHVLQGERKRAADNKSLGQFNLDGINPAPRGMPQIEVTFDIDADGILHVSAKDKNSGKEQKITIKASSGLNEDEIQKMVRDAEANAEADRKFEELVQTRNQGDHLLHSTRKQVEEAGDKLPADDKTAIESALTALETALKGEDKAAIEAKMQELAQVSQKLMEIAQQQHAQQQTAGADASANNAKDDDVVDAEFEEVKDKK

Regarding `C[C@@H]1CC[C@@]2(OC1)OC1C(O)C3C4CC[C@H]5C[C@H](O[C@@H]6O[C@H](CO)[C@H](O[C@@H]7O[C@H](CO)[C@@H](O)[C@H](O[C@@H]8OC[C@@H](O)[C@H](O)[C@H]8O)[C@H]7O[C@@H]7O[C@H](CO)[C@H](O)[C@H](O[C@@H]8O[C@H](CO)[C@@H](O)[C@H](O)[C@H]8O)[C@H]7O)[C@H](O)[C@H]6O)[C@H](O)C[C@]5(C)C4CC[C@]3(C)C1[C@@H]2C` (stereo partly drawn), the Kd is > 4 mM (inactive).

Take `NCc1ccc(S(N)(=O)=O)cc1`: the Kd was > 4 mM (inactive). The result for `COc1cc2c(cc1OC)[C@@H]1C(=O)c3ccc4c(c3O[C@@H]1CO2)C=CC(C)(C)O4` reads > 4 mM (inactive); that for `COc1ccc(-c2coc3cc(O)ccc3c2=O)cc1`, > 4 mM (inactive). For `CC(CC(=O)NN)C1(O)CCCCC1` (stereo not drawn), the Kd was > 4 mM (inactive). Next, `Cc1nn(C)c2sc(C(=O)O)cc12`: > 4 mM (inactive); `O=S(=O)(N1CCCCC1)n1nnc2ccccc21`: “inactive”; `NC(=O)c1ccc(N2C(=O)C=CC2=O)cc1Cl`: > 4 mM (inactive). Next, `CN1CCC2(CC1)CC1CC3C=CC1(CN2)O3` (stereo not drawn): > 4 mM (inactive). As to `Cc1occc1C(=O)N1CCC2(CC1)OCCO2`, the Kd was > 4 mM (inactive). Next, `CC(=O)Nc1cccc(-c2nnc3n2CC(C)S3)c1` (stereo not drawn): > 4 mM (inactive); `O=C1NCCCC1C(=O)N/N=C/c1ccccc1` (stereo not drawn): > 4 mM (inactive); `O=C(Cc1cccs1)Nc1ccon1`: > 4 mM (inactive). For the molecule `CNC(=O)Nc1cccc(C(F)(F)F)c1`, the Kd is > 4 mM (inactive). Next, `Cn1cnnc1SCCCNC(=O)Nc1ncccn1`: > 4 mM (inactive); `S=C(Nc1ccc2nccnc2c1)N1CCOCC1`: > 4 mM (inactive); `Cc1cccc(NC(=O)Nc2cc(C)on2)c1`: > 4 mM (inactive). The result for `NC(=O)Cn1nnc(-c2ccc(C(F)(F)F)cc2)n1` reads > 4 mM (inactive). Next, `O=C1CSC(=Nc2ccccc2[N+](=O)[O-])N1`: > 4 mM (inactive). Turning to `CC(N)C(=O)c1ccco1` (stereo not drawn), the Kd was > 4 mM (inactive). Next, `C[C@@H]1CC[C@@]2(NC1)O[C@H]1C[C@H]3C4CC=C5C[C@@H](O)CC[C@]5(C)C4CC[C@]3(C)C1[C@@H]2C` (stereo partly drawn): > 4 mM (inactive); `CC1CCN(C(=O)c2ccc(NS(C)(=O)=O)cc2)CC1`: > 4 mM (inactive). As for `COc1ccc2c(c1)OC[C@@H](Cc1ccc(OC)c(OC)c1)[C@H]2O`, the Kd is > 4 mM (inactive). Next, `Cc1onc(-c2ccccc2)c1CN`: > 4 mM (inactive); `Cc1cc(C)nc(NC(N)=NCc2ccco2)n1`: > 4 mM (inactive); `CSc1ccccc1NC(=O)c1cccnc1`: > 4 mM (inactive).

For `O=C(O)C1CC(=O)N(Cc2cccs2)C1` (stereo not drawn), the Kd is > 4 mM (inactive).

With `N#Cc1cn(CC(=O)N2CCCC2)c2ccccc12`, the Kd was > 4 mM (inactive). Next, `O=C1NC(=S)NC(=O)C1=Cc1ccccc1O`: > 4 mM (inactive); `COc1cc2[nH]c(=S)n(C)c(=O)c2cc1OC`: > 4 mM (inactive); `O=C(CSc1ccccc1)N1CCC2(CC1)OCCO2`: > 4 mM (inactive).

On to `COc1ccc2c(c1)OC1(O)COc3cc(OC)c(OC)cc3C1=C2` (stereo not drawn), for which the Kd is > 4 mM (inactive).

With `CC(=O)NN1C(=O)c2cccc3cccc(c23)C1=O`, the Kd was > 4 mM (inactive). The result for `CCn1cnc2cc(NCc3ccncc3)ccc21` reads > 4 mM (inactive). Regarding `CC(=O)c1cccc(NC(=O)N2CCc3ccccc3C2)c1`, the Kd was > 4 mM (inactive). For the molecule `CC(=O)c1csc(-c2cc(C)on2)n1`, the Kd is > 4 mM (inactive).

For `C=C1C([C@]2(C)C(CC(=O)OC)[C@@](C)(COC(C)=O)OC(=O)C[C@@H]2OC(C)=O)[C@@H](OC=O)[C@H](OC(=O)C(OC(C)=O)C(C)CC)[C@@]2(C)[C@H](c3ccoc3)CC(=O)C12O` (stereo partly drawn), the Kd is > 4 mM (inactive). Next, `OCC1Cc2ccccc2CN1` (stereo not drawn): > 4 mM (inactive).

For the molecule `Cc1cc(C(=O)N2CCCCCC2)cs1`, the Kd was > 4 mM (inactive). `CC1(C)CC(NC(=O)/C=C/C(=O)O)CC(C)(C)N1`: the Kd was > 4 mM (inactive). The result for `Cn1c(=O)c2c(n(C)c1=O)=NC1(CCCCC1)N=2` reads > 4 mM (inactive); that for `CC(=O)c1ccc2c(c1)OCCO2`, > 4 mM (inactive); that for `C(=N\c1nccs1)/c1cccnc1`, > 4 mM (inactive). `Cc1oc(-c2ccccc2)cc1C(N)=O`: the Kd was > 4 mM (inactive). Consider `Oc1cc(O)c2c(c1)O[C@H](c1ccc(O)c(O)c1)[C@H](O)C2`, for which the Kd was > 4 mM (inactive).

Consider `NC(=O)c1ccc(N=Cc2ccc[nH]2)cc1`, for which the Kd was > 4 mM (inactive).

Regarding `COc1ccc2c(c1OC)OC[C@@H](c1ccc(OC)c(OC)c1OC)C2`, the Kd was > 4 mM (inactive). The result for `NC(=O)c1cc2c(n(-c3ccccc3)c1=O)CCCC2=O` reads > 4 mM (inactive); that for `OCc1ccc2occc2c1`, > 4 mM (inactive). Next, `O=C1c2ccccc2C(=O)N1CCc1ccccn1`: > 4 mM (inactive); `c1nnc2c3c4c(sc3ncn12)CCCC4`: > 4 mM (inactive); `CN1CCc2c(sc(N)c2C#N)C1`: > 4 mM (inactive). In the case of `Nc1nc2ncc(=O)[nH]c2c(=O)[nH]1`, the Kd was > 4 mM (inactive). Take `CC1(C)N([O-])c2cc([N+](=O)[O-])ccc2[N+]1=O`: the Kd is > 4 mM (inactive).

On to `Cc1nn(-c2ccccc2)c(Cl)c1C(N)=O`, for which the Kd was > 4 mM (inactive). With `O=C1COc2cc(O)ccc21`, the Kd was > 4 mM (inactive).

Consider `O=C(CSC1=NCCS1)N1CCc2ccccc21`, for which the Kd is > 4 mM (inactive). The result for `CC(C)(C(N)=O)/[N+]([O-])=C\c1ccccc1` reads > 4 mM (inactive); that for `O=C(Nc1ccc2c(c1)OCCO2)c1c(F)cccc1F`, > 4 mM (inactive); that for `CC1(C)N=C2C(=N)C=CC=C2N1O`, > 4 mM (inactive). The result for `O=C(Nc1nc2ccccc2s1)c1ccc(=O)[nH]n1` reads > 4 mM (inactive). The result for `CC[C@H]1CN2CCc3cc(OC)c(OC)cc3C2C[C@@H]1CC1NCCc2cc(OC)c(OC)cc21` (stereo partly drawn) reads > 4 mM (inactive); that for `COc1ccc(/C=C2/SC(N)=NC2=O)c(OC)c1`, > 4 mM (inactive). On to `CC1(C)C=Cc2cc3ccc(=O)oc3cc2O1`, for which the Kd was > 4 mM (inactive). The result for `NC(=O)C1CCN(C(=S)Nc2ccccc2)CC1` reads > 4 mM (inactive). The result for `Cc1ccc2cc(C(=O)O)ccc2n1` reads > 4 mM (inactive); that for `CC(=O)NC(=S)Nc1nc2ccccc2n1C(C)=O`, > 4 mM (inactive); that for `Cn1ccc(NC(=S)NC2CCCC2)n1`, > 4 mM (inactive). Next, `COC(=O)CC1=Nc2ccccc2NC(=O)C1`: > 4 mM (inactive); `O=C(Nc1ccc(-c2nnco2)cc1)c1ccccc1`: > 4 mM (inactive).

`COn1c(=O)c(C)[n+]([O-])c2ccccc21`: the Kd is > 4 mM (inactive). The result for `Nc1nc2n(c1C(=O)c1ccccc1)CCC2` reads > 4 mM (inactive); that for `Oc1ccccc1-c1nnco1`, > 4 mM (inactive). As for `Cc1ccc(C2NS(=O)(=O)N=C2N)cc1` (stereo not drawn), the Kd is > 4 mM (inactive). For the molecule `O=C(O)C1CN2CCC1CC2` (stereo not drawn), the Kd was > 4 mM (inactive).

For `Cc1cc(C(=O)Nc2ccon2)cs1`, the Kd is > 4 mM (inactive). Next, `CC(=O)O[C@H]1C[C@@H](OC(C)=O)C(C)(C)C2C[C@@H](OC(C)=O)[C@]3(C)C(CC[C@@]4(C)[C@H](c5ccoc5)C(=O)[C@H]5O[C@]543)[C@]21C` (stereo partly drawn): > 4 mM (inactive); `O=C1C2CCCCC2C(=O)N1c1ccc(O)cc1` (stereo not drawn): > 4 mM (inactive). The result for `COc1ccc(-c2ccc(OC)cc2C(=O)O)cc1` reads > 4 mM (inactive); that for `CC1=C(/C=C/C(C)=C/C=C/C(C)=C/CO)C(C)(C)CCC1`, > 4 mM (inactive); that for `Cc1nc2c(=O)[nH]c3ccccc3c2o1`, > 4 mM (inactive). Turning to `S=C(CN1CCCC1=S)N1CCOCC1`, the Kd was > 4 mM (inactive).

Consider `COc1ccccc1NC(=O)C1CCCCC1`, for which the Kd was > 4 mM (inactive). Next, `Nc1ccc2ncsc2c1`: > 4 mM (inactive); `CC(=O)Nc1cc(C(F)(F)F)ccc1N1CCOCC1`: > 4 mM (inactive). The result for `NC(=O)C1CCN(c2ncnc(N)c2[N+](=O)[O-])CC1` reads > 4 mM (inactive). Next, `O=C(Nc1ccc2c(c1)OCO2)c1ccc(=O)[nH]n1`: > 4 mM (inactive); `Oc1cccc(N2CCOCC2)c1`: > 4 mM (inactive). Regarding `Cn1ncc(C(=O)NC2CCCCC2)c1Cl`, the Kd was > 4 mM (inactive).

In the case of `Nc1nonc1-c1nc2ccccc2[nH]1`, the Kd was > 4 mM (inactive). Next, `C=C[C@@](C)(O)CCC1C(=C)CCC2[C@@](C)(CO)CCC[C@]12C` (stereo partly drawn): > 4 mM (inactive). The result for `CN=C1SC(CC(=O)Nc2ccc(O)cc2)C(=O)N1C` (stereo not drawn) reads > 4 mM (inactive); that for `CC1=NN2C(=N)/C(=C\c3cccs3)C(=O)N=C2S1`, > 4 mM (inactive). For `O=c1cc(-c2ccc(O)cc2)[nH]c(=S)[nH]1`, the Kd was > 4 mM (inactive). Next, `O=C1CC(=O)N(c2ccccc2)c2ccccc21`: > 4 mM (inactive); `COc1cc2nc(N3CCNCC3)nc(N)c2cc1OC`: > 4 mM (inactive).

For `CS(=O)(=O)c1ccc2nc(N)sc2c1`, the Kd was > 4 mM (inactive). Next, `NC(=S)N1CCC(c2ccccc2)=N1`: > 4 mM (inactive).

The term Kd denotes the equilibrium constant for the complex coming apart.
